Data from patent publication US9045466B2, “Amidine compound or salt thereof” (priority 2011, dated 2015).
Values after ≈ are worked out from the molar mass of the structure shown. Counter-ions that a name gives are not always drawn. Like-named read-outs stand apart in the source and are kept apart here.

Columns and labels:
Assay in all cases: Fungal susceptibility test, broth microdilution method (MIC)
Format in all cases: cell-based
[1] = system: Candida albicans TIMM 1623; conditions: TIMM1623, 48 h
Method: (§1) The fungal susceptibility tests on test substances were conducted by the broth microdilution method equivalent to Clinical and Laboratory Standards Institute method. The medium used in the susceptibility tests was RPMI1640 adjusted to pH 7.0 with 0.165 mol/L morpholinepropanesulfonic acid (MOPS) and 50% sodium hydroxide (RPMI/MOPS). Each test substance was dissolved in DMSO and serially diluted in 2-fold increments with DMSO on a 96-well microplate. Then, the dilutions were dispensed by 1 μL to a 96-well microplate. Candida albicans TIMM 1623 cultured overnight at 35° C. in Sabouraud's agar medium was suspended in sterile saline. The number of cells was counted under a biological microscope, and the fungal suspension was diluted with RPMI/MOPS to prepare the inoculum solution (approximately 1×10^3 cells/mL). Alternatively, Candida albicans TIMM 1623 stored at −80° C. was diluted with RPMI/MOPS to prepare the inoculum solution (approximately 1×10^3 CFU/mL). Aspergillus fumigatus TIMM 0063 stored at 5° C. was diluted with RPMI/MOPS to prepare the inoculum solution (approximately 1×10^4 CFU/mL). Trichophyton rubrum NBRC 5467 stored at 5° C. or −80° C. was diluted with RPMI/MOPS to prepare the inoculum solution (approximately 2×10^3 CFU/mL). The 199 μL of inoculum solution was dispensed to each well to prepare the microplate containing the designated concentrations of test substance, medium and fungal cells. Candida albicans and Aspergillus fumigatus were cultured at 35° C. for 2 days. Trichophyton rubrum was cultured at 35° C. for 4 days. After the completion of culture, MIC was determined by visual observation. The MICs of Candida albicans and Aspergillus fumigatus were set to the lowest concentration at which approximately 50% growth inhibition was seen, when compared with a growth control without the addition of the test substance. The MIC of Trichophyton rubrum was set to the lowest concentration at which approximately 80% growth inhibition was seen, when compared with a growth control without the addition of the test substance.

[2] = system: Aspergillus fumigatus TIMM 0063; conditions: TIMM0063, 48 h
Method: as §1

[3] = system: Trichophyton rubrum NBRC 5467; conditions: NBRC5467, 96 h
Method: as §1

[4] = RPMI/MOPS pH 7.0, 35° C. for 2 days, visual, lowest concentration with approximately 50% growth inhibition, read-out: MIC (μg/mL) C. albicans TIMM1623
[5] = RPMI/MOPS pH 7.0, 35° C. for 2 days, visual, lowest concentration with approximately 50% growth inhibition, read-out: MIC (μg/mL) A. fumigatus TIMM 0063
[6] = RPMI/MOPS pH 7.0, 35° C. for 4 days, visual, lowest concentration with approximately 80% growth inhibition, read-out: MIC (μg/mL) T. rubrum NBRC5467
[7] = pH 7, read-out: MIC (μg/mL) A. fumigatus TIMM 0063
[8] = pH 7, read-out: MIC (μg/mL) C. albicans TIMM1623
[9] = pH 7, read-out: MIC (μg/mL) T. rubrum NBRC5467

MIC [1, 4] [µg/mL] | SMILES | MIC [1, 8] [µg/mL] | MIC [3, 9] [µg/mL] | also measured
0.0625 (≈ 0.139 µM) | CCN(C)/C=N/c1cc(C)c(Cc2nc(-c3ccc(C(=O)N(C)CC)cc3)cs2)cc1C [Example 42, N-Ethyl-4-{2-[4-({(E)-[ethyl(methyl)amino]methylidene}amino)-2,5-dimethylbenzyl]-1,3-thiazol-4-yl}-N-methylbenzamide] |  |  | 
 | Cc1ccc(-c2csc(Cc3cc(C)c(/N=C/N4CCCC4)cc3C)n2)cc1 [Example 1, 2,5-Dimethyl-4-{[4-(4-methylphenyl)-1,3-thiazol-2-yl]methyl}-N-[(E)-pyrrolidin-1-ylmethylidene]aniline] |  |  | MIC [2, 5]: 0.0625 µg/mL (≈ 0.16 µM); MIC [3, 6]: 0.0039 µg/mL (≈ 0.01 µM)
0.0625 (≈ 0.131 µM) | CCN(C)/C=N/c1cc(C)c(Cc2nc(-c3ccc(C(=O)NCC(C)(C)C)cc3)cs2)cc1C [Example 99, N-(2,2-Dimethylpropyl)-4-{2-[4-({(E)-[ethyl(methyl)amino]methylidene}amino)-2,5-dimethylbenzyl]-1,3-thiazol-4-yl}benzamide] |  |  | 
 | CCN(C)/C=N/c1cc(C)c(Cc2nc(-c3ccc(C)cc3)cs2)cc1C [Example 3, N′-(2,5-Dimethyl-4-{[4-(4-methylphenyl)-1,3-thiazol-2-yl]methyl}phenyl)-N-ethyl-N-methylimidoformamide dihydrochloride] | 0.0156 | 0.0005 | MIC [2, 7]: 0.0156 µg/mL
 | CCN(C)/C=N/c1cc(C)c(Cc2nc(-c3ccc(C(C)(C)C)cc3)cs2)cc1C [Example 17, N′-(4-{[4-(4-Tert-butylphenyl)-1,3-thiazol-2-yl]methyl}-2,5-dimethylphenyl)-N-ethyl-N-methylimidoformamide dihydrochloride] | 0.0313 | 0.002 | 
0.0313 (≈ 0.0827 µM) | CCN(C)/C=N/c1cc(C)c(Cc2nc(-c3ccc(C)cc3)ns2)cc1C [Example 16, N′-(2,5-Dimethyl-4-{[3-(4-methylphenyl)-1,2,4-thiadiazol-5-yl]methyl}phenyl)-N-ethyl-N-methylimidoformamide] |  |  | MIC [2, 5]: 0.0313 µg/mL (≈ 0.0827 µM); MIC [3, 6]: 0.002 µg/mL (≈ 0.00528 µM)
 | CCN(C)/C=N/c1cc(C)c(Cc2nc(-c3ncc(C(C)(C)C)s3)cs2)cc1C [Example 20, N′-{4-[(5-Tert-butyl-2,4′-bi-1,3-thiazol-2′-yl)methyl]-2,5-dimethylphenyl}-N-ethyl-N-methylimidoformamide dihydrochloride] | 0.0313 | 0.002 | 
 | CCN(C)/C=N/c1cc(C)c(Cc2nc(-c3ccc(C)cc3F)cs2)cc1C [Example 59, N-Ethyl-N′-(4-{[4-(2-fluoro-4-methylphenyl)-1,3-thiazol-2-yl]methyl}-2,5-dimethylphenyl)-N-methylimidoformamide dihydrochloride] | 0.0156 | 0.0005 | MIC [2, 7]: 0.0313 µg/mL
 | CCN(C)/C=N/c1cc(C)c(Cc2nc(-c3cnc(C(C)(C)C(F)(F)F)cn3)cs2)cc1C [Example 4, N′-[2,5-Dimethyl-4-({4-[5-(1,1,1-trifluoro-2-methylpropan-2-yl)pyrazin-2-yl]-1,3-thiazol-2-yl}methyl)phenyl]-N-ethyl-N-methylimidoformamide hydrochloride] | 0.0313 | 0.002 | 
0.0313 | CCN(C)/C=N/c1cc(C)c(Cc2nc(C(=O)c3ccc(C(F)(F)F)cc3)cs2)cc1C [Example 36, N′-{2,5-Dimethyl-4-[(4-{[4-(trifluoromethyl)phenyl]carbonyl}-1,3-thiazol-2-yl)methyl]phenyl}-N-ethyl-N-methylimidoformamide hydrobromide] |  |  | 
 | CCN(C)/C=N/c1cc(C)c(Cc2nc(-c3ccc(C(=O)NC(C)(C)C)cc3)cs2)cc1C [Example 24, N-Tert-butyl-4-{2-[4-({(E)-[ethyl(methyl)amino]methylidene}amino)-2,5-dimethylbenzyl]-1,3-thiazol-4-yl}benzamide dihydrochloride] | 0.0313 | 0.0039 | 
0.0156 (≈ 0.0383 µM) | CCN(C)/C=N/c1cc(C)c(Cc2nc(COc3ccc(C)cc3)cs2)cc1C [Example 60, N′-[2,5-Dimethyl-4-({4-[(4-methylphenoxy)methyl]-1,3-thiazol-2-yl}methyl)phenyl]-N-ethyl-N-methylimidoformamide] |  |  | MIC [3, 6]: 0.001 µg/mL (≈ 0.00245 µM)
 | CCN(C)/C=N/c1cc(C)c(Cc2nc(-c3ccc(Cl)cc3)cs2)cc1C [Example 49, N′-(4-{[4-(4-Chlorophenyl)-1,3-thiazol-2-yl]methyl}-2,5-dimethylphenyl)-N-ethyl-N-methylimidoformamide hydrochloride] | 0.0156 |  | MIC [2, 7]: 0.0625 µg/mL
 | CCN(C)/C=N/c1cc(C)c(Cc2nc(-c3cscn3)cs2)cc1C [Example 48, N′-[4-(4,4′-Bi-1,3-thiazol-2-ylmethyl)-2,5-dimethylphenyl]-N-ethyl-N-methylimidoformamide hydrochloride] | 0.0625 | 0.0078 | 
 | CCN(C)/C=N/c1cc(C)c(Cc2nc(-c3ccc(C(=O)OC)cc3)cs2)cc1C [Example 14, Methyl 4-{2-[4-({(E)-[ethyl(methyl)amino]methylidene}amino)-2,5-dimethylbenzyl]-1,3-thiazol-4-yl}benzoate dihydrochloride] | 0.0625 |  | 
 | CCN(C)/C=N/c1cc(C)c(Cc2nc(C(C)(C)C)cs2)cc1C [Example 29, N′-{4-[(4-Tert-butyl-1,3-thiazol-2-yl)methyl]-2,5-dimethylphenyl}-N-ethyl-N-methylimidoformamide dihydrochloride] | 0.0625 | 0.0039 | 
 | CCN(C)/C=N/c1cc(C)c(Cc2nc(COC(C)C)cs2)cc1C [Example 63, N′-[2,5-Dimethyl-4-({4-[(propan-2-yloxy)methyl]-1,3-thiazol-2-yl}methyl)phenyl]-N-ethyl-N-methylimidoformamide dihydrochloride] |  | 0.0156 | 
0.0625 | CCN(C)/C=N/c1cc(C)c(Cc2nc(C(=O)c3ccc(Cl)cc3)cs2)cc1C [Example 27, N′-[4-({4-[(4-Chlorophenyl)carbonyl]-1,3-thiazol-2-yl}methyl)-2,5-dimethylphenyl]-N-ethyl-N-methylimidoformamide hydrobromide] |  |  | MIC [2, 5]: 0.0625 µg/mL
0.0625 | CCN(C)/C=N/c1cc(C)c(Cc2nc(-c3cnc(OC)cn3)cs2)cc1C [Example 26, N-Ethyl-N′-(4-{[4-(5-methoxypyrazin-2-yl)-1,3-thiazol-2-yl]methyl}-2,5-dimethylphenyl)-N-methylimidoformamide hydrobromide] |  |  | MIC [2, 5]: 0.0625 µg/mL
 | CCN(C)/C=N/c1cc(C)c(Cc2nc(-c3cnc(C)cn3)cs2)cc1C [Example 37, N′-(2,5-Dimethyl-4-{[4-(5-methylpyrazin-2-yl)-1,3-thiazol-2-yl]methyl}phenyl)-N-ethyl-N-methylimidoformamide dihydrochloride] |  | 0.0039 | 
 | CCN(C)/C=N/c1cc(C)c(Cc2nc(C(=O)NC3CCC(F)(F)CC3)cs2)cc1C [Example 96, N-(4,4-Difluorocyclohexyl)-2-[4-({(E)-[ethyl(methyl)amino]methylidene}amino)-2,5-dimethylbenzyl]-1,3-thiazole-4-carboxamide hydrochloride] |  | 0.0313 | 
0.0156 | CCN(C)/C=N/c1cc(C)c(Cc2nc(-c3cc(F)c(C)cc3F)cs2)cc1C [Example 58, N′-(4-{[4-(2,5-Difluoro-4-methylphenyl)-1,3-thiazol-2-yl]methyl}-2,5-dimethylphenyl)-N-ethyl-N-methylimidoformamide hydrobromide] |  |  | MIC [2, 5]: 0.0625 µg/mL; MIC [3, 6]: 0.001 µg/mL
 | CCN(C)/C=N/c1cc(C)c(Cc2nc(-c3ccc(C(=O)NC(C)C)cc3)cs2)cc1C [Example 98, 4-{2-[4-({(E)-[Ethyl(methyl)amino]methylidene}amino)-2,5-dimethylbenzyl]-1,3-thiazol-4-yl}-N-(propan-2-yl)benzamide] |  |  | MIC [3, 6]: 0.0156 µg/mL (≈ 0.0348 µM)
